Results reported in ChEMBL document CHEMBL4130589, “Synthesis of Novel Selenides Bearing Benzenesulfonamide Moieties as Carbonic Anhydrase I, II, IV, VII, and IX Inhibitors” (ACS Med Chem Lett, 2017).

Biological target: Carbonic anhydrase 9 (Homo sapiens, UniProt Q16790)
Test: Inhibition of recombinant human carbonic anhydrase 9 incubated for 15 mins by stopped flow CO2 hydrase assay

In order of rising Ki:
1. CC(C)[C@@H](C[Se]c1ccc(S(N)(=O)=O)cc1)NC(=O)OC(C)(C)C  2.3 nM
2. C=C(C)[C@@H]1CCC(C)(O)C([Se]c2ccc(S(N)(=O)=O)cc2)C1 (stereo partly drawn)  2.4 nM
3. Cc1ccc(S(=O)(=O)N[C@H](C[Se]c2ccc(S(N)(=O)=O)cc2)Cc2ccccc2)cc1  2.4 nM
4. CC(C)[C@H](N)C[Se]c1ccc(S(N)(=O)=O)cc1  2.4 nM
5. NS(=O)(=O)c1ccc([Se][Se]c2ccc(S(N)(=O)=O)cc2)cc1  2.7 nM
6. CCCCC(O)C[Se]c1ccc(S(N)(=O)=O)cc1 (stereo not drawn)  5.6 nM
7. NS(=O)(=O)c1ccc([Se]CC(O)CBr)cc1 (stereo not drawn)  6.5 nM
8. NS(=O)(=O)c1ccc([Se]C2CCCCC2O)cc1 (stereo not drawn)  8.3 nM
9. N#C[Se]c1ccc(S(N)(=O)=O)cc1  9.3 nM
10. Cc1ccc(S(=O)(=O)N[C@H](C[Se]c2ccc(S(N)(=O)=O)cc2)C(C)C)cc1  10.1 nM
11. NS(=O)(=O)c1ccc([Se]CC(O)COCc2ccccc2)cc1 (stereo not drawn)  10.1 nM
12. C=CCOCC(O)C[Se]c1ccc(S(N)(=O)=O)cc1 (stereo not drawn)  11.9 nM
13. CC(C)OCC(O)C[Se]c1ccc(S(N)(=O)=O)cc1 (stereo not drawn)  15.9 nM
